In patent publication US20260055079A1, “PHTHALAZINONE COMPOUNDS AS PARP7 INHIBITORS” (AZKARRA THERAPEUTICS, INC., priority 2022, published 2026):
Each block holds one compound with its values, some of them ahead of it.

Target: His-GST-PARP7 (Homo sapiens (Human), UniProt Q7Z3E1)
Experiment: PARP7 biochemical assay
Settings: read-out: PARP7 IC50

His-GST-PARP7, sequence (Q7Z3E1 whole entry): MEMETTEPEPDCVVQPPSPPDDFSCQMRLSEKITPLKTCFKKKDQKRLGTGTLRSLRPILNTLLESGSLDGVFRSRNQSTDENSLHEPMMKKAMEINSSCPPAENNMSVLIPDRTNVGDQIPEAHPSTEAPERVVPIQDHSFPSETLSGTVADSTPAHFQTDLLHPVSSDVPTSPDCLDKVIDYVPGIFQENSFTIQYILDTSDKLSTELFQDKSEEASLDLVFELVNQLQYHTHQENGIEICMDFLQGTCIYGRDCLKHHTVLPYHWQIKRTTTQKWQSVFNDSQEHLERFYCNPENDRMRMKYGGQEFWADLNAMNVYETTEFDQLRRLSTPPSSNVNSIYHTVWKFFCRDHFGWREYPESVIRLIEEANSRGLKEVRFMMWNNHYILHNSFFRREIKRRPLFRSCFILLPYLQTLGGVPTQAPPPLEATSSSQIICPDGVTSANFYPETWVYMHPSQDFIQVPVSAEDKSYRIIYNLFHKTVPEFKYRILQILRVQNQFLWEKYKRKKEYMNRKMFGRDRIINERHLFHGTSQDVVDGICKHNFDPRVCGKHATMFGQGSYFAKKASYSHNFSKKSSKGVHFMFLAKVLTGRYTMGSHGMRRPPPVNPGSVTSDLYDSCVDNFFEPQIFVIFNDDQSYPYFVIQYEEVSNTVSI

SMILES: O=C(c1cc(Cc2n[nH]c(=O)c3ccc(OC4CCC4)cc23)ccc1F)N1CC2CCC1CN2c1ncc(C(F)(F)F)cn1 (stereo not drawn) [Example 144, 6-cyclobutoxy-4-(4-fluoro-3-(5-(5-(trifluoromethyl)pyrimidin-2-yl)-2,5-diazabicyclo[2.2.2]octane-2-carbonyl)benzyl)phthalazin-1(2H)-one]
IC50: < 50 nM

SMILES: O=C(c1cc(Cc2n[nH]c(=O)c3ccc(OC4CCC4)cc23)ccc1F)N1CC2CN(c3ncc(C(F)(F)F)cn3)CC2C1 (stereo not drawn) [Example 147, 6-cyclobutoxy-4-(4-fluoro-3-(5-(5-(trifluoromethyl)pyrimidin-2-yl)octahydropyrrolo[3,4-c]pyrrole-2-carbonyl)benzyl)phthalazin-1(2H)-one]
IC50: > 2000 nM

SMILES: CC(F)(F)c1cnc(N2CCN(C(=O)c3cc(Cc4n[nH]c(=O)c5ccc(OC6CCC6)cc45)ccc3F)CC2)nc1 [Example 161, 6-cyclobutoxy-4-(3-(4-(5-(1,1-difluoroethyl)pyrimidin-2-yl)piperazine-1-carbonyl)-4-fluorobenzyl)phthalazin-1(2H)-one]
IC50: < 50 nM

SMILES: O=C(c1cc(Cc2n[nH]c(=O)c3ccc(OC4CCC4)cc23)ccc1F)N1CCn2c(nnc2C(F)F)C1 [Example 163, 6-Cyclobutoxy-4-(3-(3-(difluoromethyl)-5,6,7,8-tetrahydro-[1,2,4]triazolo[4,3-a]pyrazine-7-carbonyl)-4-fluorobenzyl)phthalazin-1(2H)-one]
IC50: < 50 nM

SMILES: O=C(c1cc(Cc2n[nH]c(=O)c3ccc(OC4CCC4)cc23)ccc1F)N1CCn2c(CF)nnc2C1 [Example 164, 6-Cyclobutoxy-4-(4-fluoro-3-(3-(fluoromethyl)-5,6,7,8-tetrahydro-[1,2,4]triazolo[4,3-a]pyrazine-7-carbonyl)benzyl)phthalazin-1(2H)-one]
IC50: < 50 nM

SMILES: COc1nnc2n1CCN(C(=O)c1cc(Cc3n[nH]c(=O)c4ccc(OC5CCC5)cc34)ccc1F)C2 [Example 165, 6-Cyclobutoxy-4-(4-fluoro-3-(3-methoxy-5,6,7,8-tetrahydro-[1,2,4]triazolo[4,3-a]pyrazine-7-carbonyl)benzyl)phthalazin-1(2H)-one]
IC50: < 50 nM

SMILES: O=C(c1cc(Cc2n[nH]c(=O)c3ccc(OC4CCC4)cc23)ccc1F)N1CCn2c(CO)nnc2C1 [Example 166, 6-Cyclobutoxy-4-(4-fluoro-3-(3-(hydroxymethyl)-5,6,7,8-tetrahydro-[1,2,4]triazolo[4,3-a]pyrazine-7-carbonyl)benzyl)phthalazin-1(2H)-one]
IC50: < 50 nM

SMILES: COCc1nnc2n1CCN(C(=O)c1cc(Cc3n[nH]c(=O)c4ccc(OC5CCC5)cc34)ccc1F)C2 [Example 167, 6-Cyclobutoxy-4-(4-fluoro-3-(3-(methoxymethyl)-5,6,7,8-tetrahydro-[1,2,4]triazolo[4,3-a]pyrazine-7-carbonyl)benzyl)phthalazin-1(2H)-one]
IC50: < 50 nM

SMILES: O=C(c1cccc(Cc2n[nH]c(=O)c3ccc(OC4CCC4)cc23)c1)N1CCN(c2ncc(C(F)(F)F)cn2)CC1 [Example 170, 6-cyclobutoxy-4-(3-(4-(5-(trifluoromethyl)pyrimidin-2-yl)piperazine-1-carbonyl)benzyl)phthalazin-1(2H)-one]
IC50: < 50 nM

SMILES: O=C(c1cccc(Cc2n[nH]c(=O)c3ccc(OC4CCC4)cc23)c1Cl)N1CCN(c2ncc(C(F)(F)F)cn2)CC1 [Example 171, 4-(2-Chloro-3-(4-(5-(trifluoromethyl)pyrimidin-2-yl)piperazine-1-carbonyl)benzyl)-6-cyclobutoxyphthalazin-1(2H)-one]
IC50: 50 to 100 nM

SMILES: O=C(c1ccc(Cc2n[nH]c(=O)c3ccc(OC4CCC4)cc23)cc1F)N1CCN(c2ncc(C(F)(F)F)cn2)CC1 [Example 172, 6-Cyclobutoxy-4-(3-fluoro-4-(4-(5-(trifluoromethyl)pyrimidin-2-yl)piperazine-1-carbonyl)benzyl)phthalazin-1(2H)-one]
IC50: > 2000 nM

SMILES: O=C(c1ccc(Cl)c(Cc2n[nH]c(=O)c3ccc(OC4CCC4)cc23)c1)N1CCN(c2ncc(C(F)(F)F)cn2)CC1 [Example 173, 4-(2-Chloro-5-(4-(5-(trifluoromethyl)pyrimidin-2-yl)piperazine-1-carbonyl)benzyl)-6-cyclobutoxyphthalazin-1(2H)-one]
IC50: 500 to 2000 nM

SMILES: O=C(c1cc(Cl)cc(Cc2n[nH]c(=O)c3ccc(OC4CCC4)cc23)c1)N1CCN(c2ncc(C(F)(F)F)cn2)CC1 [Example 174, 4-(3-chloro-5-(4-(5-(trifluoromethyl)pyrimidin-2-yl)piperazine-1-carbonyl)benzyl)-6-cyclobutoxyphthalazin-1(2H)-one]
IC50: < 50 nM

SMILES: N#Cc1ccnc(N2CCN(C(=O)c3cc(Cc4n[nH]c(=O)c5ccc(OC6CCC6)cc45)cc4c3OCC4)CC2)c1 [Example 175, 2-(4-(5-((7-cyclobutoxy-4-oxo-3,4-dihydrophthalazin-1-yl)methyl)-2,3-dihydrobenzofuran-7-carbonyl)piperazin-1-yl)isonicotinonitrile]
IC50: 50 to 100 nM

IC50: < 50 nM
SMILES: N#Cc1ccc(N2CCN(C(=O)c3cc(Cc4n[nH]c(=O)c5ccc(CC(F)(F)F)cc45)ccc3F)CC2)nc1 [Example 183, 6-(4-(2-Fluoro-5-((4-oxo-7-(2,2,2-trifluoroethyl)-3,4-dihydrophthalazin-1-yl)methyl)benzoyl)piperazin-1-yl)nicotinonitrile]

IC50: > 2000 nM
SMILES: CN1CCN(C(=O)c2ccc(Cc3n[nH]c(=O)c4c(F)cccc34)cc2)CC1 [Example 186, 8-Fluoro-4-(4-(4-methylpiperazine-1-carbonyl)benzyl)phthalazin-1(2H)-one]

SMILES: CN(c1cc(C#N)ccn1)C1CN(S(=O)(=O)c2cc(Cc3n[nH]c(=O)c4ccc(OC5CCC5)cc34)ccc2F)C1 [Example 189, 2-((1-((5-((7-cyclobutoxy-4-oxo-3,4-dihydrophthalazin-1-yl)methyl)-2-fluorophenyl)sulfonyl)azetidin-3-yl)(methyl)amino)isonicotinonitrile]
IC50: 500 to 2000 nM

IC50: < 50 nM
SMILES: CC#Cc1ccc2c(=O)[nH]nc(C(C)CCCC(=O)N3CCN(c4ncc(C(F)(F)F)cn4)CC3)c2c1 (stereo not drawn) [Example 195, 4-(6-Oxo-6-(4-(5-(trifluoromethyl)pyrimidin-2-yl)piperazin-1-yl)hexan-2-yl)-6-(prop-1-yn-1-yl)phthalazin-1(2H)-one]

IC50: > 2000 nM
SMILES: CC#Cc1ccc2c(=O)[nH]nc(Cc3ccc(F)c(C(=O)NC(C)c4nnc(C(F)(F)F)o4)c3)c2c1 (stereo not drawn) [Example 200, 2-Fluoro-5-((4-oxo-7-(prop-1-ynyl)-3,4-dihydrophthalazin-1-yl)methyl)-N-(1-(5-(trifluoromethyl)-1,3,4-oxadiazol-2-yl)ethyl)benzamide]

IC50: 100 to 500 nM
SMILES: CC#Cc1ccc2c(=O)[nH]nc(Cc3ccc(F)c(C(=O)N(C)Cc4nnc(C(F)(F)F)o4)c3)c2c1 [Example 202, 2-Fluoro-N-methyl-5-((4-oxo-7-(prop-1-ynyl)-3,4-dihydrophthalazin-1-yl)methyl)-N-((5-(trifluoromethyl)-1,3,4-oxadiazol-2-yl)methyl)benzamide]

SMILES: O=C(NC1CN(C(=O)C2CC2)C1)c1cc(Cc2n[nH]c(=O)c3ccc(OC4CCC4)cc23)ccc1F [Example 203, 5-((7-Cyclobutoxy-4-oxo-3,4-dihydrophthalazin-1-yl)methyl)-N-(1-(cyclopropanecarbonyl)azetidin-3-yl)-2-fluorobenzamide]
IC50: 100 to 500 nM

SMILES: N#Cc1ccc(N2CC(NC(=O)c3cc(Cc4n[nH]c(=O)c5ccc(OC6CCC6)cc45)ccc3F)C2)nc1 [Example 204, N-(1-(5-Cyanopyridin-2-yl)azetidin-3-yl)-5-((7-cyclobutoxy-4-oxo-3,4-dihydrophthalazin-1-yl)methyl)-2-fluorobenzamide]
IC50: > 2000 nM

SMILES: O=C(NC1CN(c2ncc(C(F)(F)F)cn2)C1)c1cc(Cc2n[nH]c(=O)c3ccc(OC4CCC4)cc23)ccc1F [Example 205, 5-((7-Cyclobutoxy-4-oxo-3,4-dihydrophthalazin-1-yl)methyl)-2-fluoro-N-(1-(5-(trifluoromethyl)pyrimidin-2-yl)azetidin-3-yl)benzamide]
IC50: > 2000 nM

SMILES: O=C(C1CC1)N1CCN(c2noc3c(Cc4n[nH]c(=O)c5ccc(OC6CCC6)cc45)cccc23)CC1 [Example 206, 6-Cyclobutoxy-4-((3-(4-(cyclopropanecarbonyl)piperazin-1-yl)benzo[d]isoxazol-7-yl)methyl)phthalazin-1(2H)-one]
IC50: 100 to 500 nM

SMILES: O=c1[nH]nc(Cc2cccc3c(N4CCN(c5ncc(C(F)(F)F)cn5)CC4)noc23)c2cc(OC3CCC3)ccc12 [Example 207, 6-Cyclobutoxy-4-((3-(4-(5-(trifluoromethyl)pyrimidin-2-yl)piperazin-1-yl)benzo[d]isoxazol-7-yl)methyl)phthalazin-1(2H)-one]
IC50: > 2000 nM

SMILES: O=c1[nH]nc(Cc2ccc3onc(N4CCN(c5ncc(C(F)(F)F)cn5)CC4)c3c2)c2cc(OC3CCC3)ccc12 [Example 209, 6-Cyclobutoxy-4-((3-(4-(5-(trifluoromethyl)pyrimidin-2-yl)piperazin-1-yl)benzo[d]isoxazol-5-yl)methyl)phthalazin-1(2H)-one]
IC50: > 2000 nM

SMILES: O=C(C1CC1)N1CCN(c2noc3ccc(Cc4n[nH]c(=O)c5ccc(OC6CCC6)cc45)cc23)CC1 [Example 210, 6-cyclobutoxy-4-((3-(4-(cyclopropanecarbonyl)piperazin-1-yl)benzo[d]isoxazol-5-yl)methyl)phthalazin-1(2H)-one]
IC50: 500 to 2000 nM

SMILES: O=c1[nH]nc(Cc2ccc3c(N4CCN(c5ncc(C(F)(F)F)cn5)CC4)noc3c2)c2cc(OC3CCC3)ccc12 [Example 212, 6-Cyclobutoxy-4-((3-(4-(5-(trifluoromethyl)pyrimidin-2-yl)piperazin-1-yl)benzo[d]isoxazol-6-yl)methyl)phthalazin-1(2H)-one]
IC50: > 2000 nM

SMILES: O=C(C1CC1)N1CCN(c2noc3cc(Cc4n[nH]c(=O)c5ccc(OC6CCC6)cc45)ccc23)CC1 [Example 213, 6-cyclobutoxy-4-((3-(4-(cyclopropanecarbonyl)piperazin-1-yl)benzo[d]isoxazol-6-yl)methyl)phthalazin-1(2H)-one]
IC50: > 2000 nM

SMILES: N#Cc1ccc(N2CCN(c3noc4cc(Cc5n[nH]c(=O)c6ccc(OC7CCC7)cc56)ccc34)CC2)nc1 [Example 214, 6-(4-(6-((7-Cyclobutoxy-4-oxo-3,4-dihydrophthalazin-1-yl)methyl)benzo[d]isoxazol-3-yl)piperazin-1-yl)nicotinonitrile]
IC50: > 2000 nM
